From article PMC6196238, “Novobiocin, a Newly Found TRPV1 Inhibitor, Attenuates the Expression of TRPV1 in Rat Intestine and Intestinal Epithelial Cell Line IEC-6” (Frontiers in Pharmacology, 2018)
One block for each compound: values may come before it.

Assays:
[1] = system: TRPV1; assay: TRPV1 mRNA and protein expression in rat intestine after oral administration (qRT-PCR, western blot); type: in vivo
Description: Forty male SD rats (200–250 g) were used for orally administered experiment. The animals were arbitrarily distributed in eight different groups and each group was treated with its respective dose of calculated amount. Group I was orally administered 0.9% normal saline (5 mL⋅kg^-1). Group II labeled as positive control was orally administered with 10 μM RR (5 mL⋅kg^-1). Rats of Group […] were treated with 5 mL⋅kg^-1 of NOVO dissolved in 0.9% normal saline (5, 10, 25, and 50 μM, respectively). The animals were orally administered twice a day for 2 weeks. After another 14 days, animals were sacrificed and then the jejunum, ileum and colon tissue were excised. The intestinal tissues were frozen in liquid nitrogen, and then stored at -80°C for protein or ribonucleic acid (RNA) isolation.
(§1) qRT-PCR was performed to evaluate TRPV1 mRNA expression after NOVO treatment. The total RNA of the cells or tissues was isolated with an RNA isolation plus kit (Takara Shuzo, Kyoto, Japan), according to the manufacturer’s protocol. The quality of RNA was confirmed by agarose gel electrophoresis and an optical density measurement of A260/A280. The cDNAs were prepared using SYBR® Premix Ex Taq^TMII (Takara Shuzo, Kyoto, Japan) and the following primers: 5′-[…]-3′ and 5′-[…]-3′ for TRPV1, and 5′-[…]-3′, 5′-[…]-3′ for GAPDH were carried out by using the LightCycler480 System. The relative expression was calculated by the 2^-ΔΔC(t) method ([Livak and Schmittgen, 2001]).
(§2) After treatment, the cells or tissues were collected and washed with PBS. Membrane protein extracts were obtained with Membrane Protein Extraction Kit (Thermo Fisher Scientific Inc, United States), according to the manufacturer’s protocol. Protein concentrations were quantified by using the BCA Protein Assay kit (Beyotime, Shanghai, China). Equal amounts of protein were resolved by SDS-PAGE on a 10% polyacrylamide gel and transferred onto a polyvinylidene fluoride membrane. […]

[2] = system: rat intestine (jejunum, ileum, colon); assay: Ussing chamber intestinal permeability of CAP; type: in vitro ADME; conditions: for fold-inhibition factor of CAP Papp: vs CAP only
Description: NOVO was also prepared in HEPES buffer to yield final concentration at 5, 10, 25, 50, 100, and 200 μM. […] Different portions of the rat intestine were excised and flushed with HEPES buffer, including jejunum (after the first 5 cm of the top of small intestine), ileum (the distal part of small intestine) and colon (proximal to cecal-colonic junction), and incubated in the ice-cold HEPES buffer. Next, 3–4 cm of the intestine was clipped, and the serosa was removed rapidly on an ice-cold glass. The intestinal segments were fixed in the Ussing chamber. Finally, 7 mL of HEPES buffer was added to the receiving side while an equal volume of drug solution to the dosing side. […] All the samples were kept at -20°C till HPLC analysis.
In brief, samples were injected into a C18 column (3.5 μm, 2.1 mm × 100 mm). An aliquot of 20 μL of sample solutions were injected.

[3] = system: rat intestine (jejunum, ileum, colon); assay: Ussing chamber intestinal permeability of NOVO; type: in vitro ADME; conditions: jejunum vs ileum and colon; Figure 1
Description: The intestinal permeability of CAP in vitro was performed using Ussing chamber. […] NOVO was also prepared in HEPES buffer to yield final concentration at 5, 10, 25, 50, 100, and 200 μM. Animal intestinal segments for the permeability study were prepared in accordance with the experimental method as described previously ([Yodoya et al., 1994]; [Wallon et al., 2005]; [Duan et al., 2013]). Briefly, male SD rats, weighting 240–260 g, were fasted for 18 h before each experiment and anesthetized by injecting 10 % chloral hydrate anesthesia (i.p.). Different portions of the rat intestine were excised and flushed with HEPES buffer, including jejunum (after the first 5 cm of the top of small intestine), ileum (the distal part of small intestine) and colon (proximal to cecal-colonic junction), and incubated in the ice-cold HEPES buffer. Next, 3–4 cm of the intestine was clipped, and the serosa was removed rapidly on an ice-cold glass. The intestinal segments were fixed in the Ussing chamber. Finally, 7 mL of HEPES buffer was added to the receiving side while an equal volume of drug solution to the dosing side. All the chambers were maintained at 37°C by using a warm water-circulating pump and a mixture of 95% O2 and 5% CO2 aerated to ensure the activity of the membrane. […]

[4] = system: TRPV1; assay: TRPV1 expression in IEC-6/TRPV1+ cells (qRT-PCR, western blot, immunofluorescence); type: cell-based, rat; conditions: for fluorescence intensity of TRPV1: pre-treatment 24 h, NOVO 10 μM, SB-705498 0.1 μM, Figure 2G
Description: The IEC-6/TRPV1^+ cells were cultured on coverslips in 24-well plates overnight. Briefly, cells were stimulated with NOVO (10 μM), SB-705498 (0.1 μM) for 24 h. At the end of incubation, cells were fixed with 4% paraformaldehyde in 0.1 M PBS for 20 min. The cells were then treated by 0.25% (v/v) TritonX-100 for 5 min, and washed again. Followed by blocking in 5% (v/v) horse serum for 60 min, cells were then incubated with primary antibodies for the anti-TRPV1 receptor antibody (1:1000, NB100-1617, Novus) overnight in a 4°C refrigerator. Alexa Flour® 488-conjugated goat anti-rabbit IgG (Zhongshan Goldenbridge Biotechnology) at 1:100 dilution was used as the secondary antibody that incubated cells for 60 min. Thereafter, the coverslips were mounted face down onto slides with mounting medium containing DAPI and stored at 4°C before microscopy. Fluorescence images were captured using a fluorescence microscope (Olympus, Japan).
as §1, §2

permeability of CAP in the Ussing chamber experiment ([2]; NOVO concentration higher than 100 μM, data not shown): increased
Papp of CAP ([2]; colon, CAP + 5 μM inhibitor): 8.28 ± 2.55 ×10^-6, cm⋅s^-1
fold-inhibition factor of CAP Papp ([2]; colon, CAP + 5 μM inhibitor): 2.41 fold
Papp of CAP ([2]; colon, CAP + 10 μM inhibitor): 6.05 ± 1.85 ×10^-6, cm⋅s^-1
fold-inhibition factor of CAP Papp ([2]; colon, CAP + 10 μM inhibitor): 3.30 fold
Papp of CAP ([2]; colon, CAP + 25 μM inhibitor): 5.65 ± 2.04 ×10^-6, cm⋅s^-1
fold-inhibition factor of CAP Papp ([2]; colon, CAP + 25 μM inhibitor): 3.54 fold
Papp of CAP ([2]; colon, CAP + 50 μM inhibitor): 9.79 ± 2.20 ×10^-6, cm⋅s^-1
fold-inhibition factor of CAP Papp ([2]; colon, CAP + 50 μM inhibitor): 2.04 fold
Papp of CAP ([2]; ileum, CAP + 5 μM inhibitor): 3.40 ± 0.76 ×10^-6, cm⋅s^-1
fold-inhibition factor of CAP Papp ([2]; ileum, CAP + 5 μM inhibitor): 2.17 fold
Papp of CAP ([2]; ileum, CAP + 10 μM inhibitor): 2.17 ± 0.58 ×10^-6, cm⋅s^-1
fold-inhibition factor of CAP Papp ([2]; ileum, CAP + 10 μM inhibitor): 3.40 fold
Papp of CAP ([2]; ileum, CAP + 25 μM inhibitor): 4.02 ± 0.42 ×10^-6, cm⋅s^-1
fold-inhibition factor of CAP Papp ([2]; ileum, CAP + 25 μM inhibitor): 1.83 fold
Papp of CAP ([2]; ileum, CAP + 50 μM inhibitor): 5.23 ± 0.25 ×10^-6, cm⋅s^-1
fold-inhibition factor of CAP Papp ([2]; ileum, CAP + 50 μM inhibitor): 1.41 fold
Papp of CAP ([2]; jejunum, CAP + 5 μM inhibitor): 1.96 ± 0.25 ×10^-6, cm⋅s^-1
fold-inhibition factor of CAP Papp ([2]; jejunum, CAP + 5 μM inhibitor): 1.60 fold
Papp of CAP ([2]; jejunum, CAP + 10 μM inhibitor): 1.36 ± 0.47 ×10^-6, cm⋅s^-1
fold-inhibition factor of CAP Papp ([2]; jejunum, CAP + 10 μM inhibitor): 2.31 fold
Papp of CAP ([2]; jejunum, CAP + 25 μM inhibitor): 1.60 ± 0.38 ×10^-6, cm⋅s^-1
fold-inhibition factor of CAP Papp ([2]; jejunum, CAP + 25 μM inhibitor): 1.97 fold
Papp of CAP ([2]; jejunum, CAP + 50 μM inhibitor): 2.11 ± 0.04 ×10^-6, cm⋅s^-1
fold-inhibition factor of CAP Papp ([2]; jejunum, CAP + 50 μM inhibitor): 1.49 fold
Compound: CO[C@@H]1[C@@H](OC(N)=O)[C@@H](O)[C@H](Oc2ccc3c(O)c(NC(=O)c4ccc(O)c(CC=C(C)C)c4)c(=O)oc3c2C)OC1(C)C [NOVO, novobiocin]
TRPV1 protein expression in rat intestine ([1]; 5 μM NOVO p.o., western blot): not sufficient to attenuate TRPV1 protein expression
TRPV1 mRNA level in rat intestine ([1]; 14 days p.o. NOVO 5-50 μM twice per day, jejunum, ileum, colon, Figure 2D): decreased markedly
TRPV1 protein level in rat intestine ([1]; 14 days p.o. NOVO twice per day, western blot, Figure 2E): decreased the TRPV1 protein level in a dose-dependent manner
permeability of NOVO across intestinal segments [3]: much greater in the jejunum than in the ileum and colon
expression of TRPV1 mRNA and protein ([4]; 2.5-10 μM NOVO, over 24 h, Figures 2A,B,F): dramatically attenuate
fluorescence intensity of TRPV1 [4]: reduced

Compound: O=C(Nc1ccccc1Br)N[C@@H]1CCN(c2ccc(C(F)(F)F)cn2)C1 [SB-705498]
fluorescence intensity of TRPV1 [4]: reduced
